Source: patent US6756359B2, “C12 modified erythromycin macrolides and ketolides having antibacterial activity” (Chiron Corporation, priority 2001, dated 2004)
Values after ≈ are worked out from the molar mass of the structure shown.

Key:
Experiment in all cases: Antibacterial activity in vitro, MIC by broth microdilution
E. coli Esco_25922 = type: cell-based; conditions: Table 3, Strain ID M: E. coli Esco_25922; unit assumed
Procedure, shortened: (§1)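 Broth microdilution per NCCLS in cation-adjusted Mueller-Hinton broth (S. pneumoniae: plus 2-5% lysed horse blood, 5-10% CO2), inoculum 3×10^5–7×10^5 CFU/mL, 2-fold serial drug dilutions, 35° C. for 18-24 hours. MIC taken as lowest concentration preventing visible growth.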

E. faecalis Enfa_29212 = type: cell-based; conditions: Table 3, Strain ID C: E. faecalis Enfa_29212
Procedure, shortened: as §1

[1] = tested on: S. epidermidis Step_14990; type: cell-based; conditions: Table 3, Strain ID A: S. epidermidis Step_14990; unit assumed
Procedure, shortened: as §1

[2] = tested on: S. epidermidis Step_f50654 Pen S; type: cell-based; conditions: Table 3, Strain ID B: S. epidermidis Step_f50654 Pen S; unit assumed
Procedure, shortened: as §1

S. pyogenes Stpy_8668 = type: cell-based; conditions: Table 3, Strain ID D: S. pyogenes Stpy_8668
Procedure, shortened: as §1

[3] = tested on: S. pneumoniae Stpn_280-962 Pen S; type: cell-based, Streptococcus pneumoniae; conditions: Table 3, Strain ID G: S. pneumoniae Stpn_280-962 Pen S
Procedure, shortened: as §1

[4] = tested on: S. pneumoniae Stpn_297-749 Pen R; type: cell-based, Streptococcus pneumoniae; conditions: Table 3, Strain ID F: S. pneumoniae Stpn_297-749 Pen R
Procedure, shortened: as §1

S. pneumoniae Stpn_49619 = type: cell-based, Streptococcus pneumoniae; conditions: Table 3, Strain ID E: S. pneumoniae Stpn_49619
Procedure, shortened: as §1

[5] = tested on: S. pneumoniae Stpn_Erm 6849; type: cell-based, Streptococcus pneumoniae; conditions: Table 3, Strain ID H: S. pneumoniae Stpn_Erm 6849; unit assumed
Procedure, shortened: as §1

[6] = tested on: S. pneumoniae Stpn_Erm S 4297; type: cell-based, Streptococcus pneumoniae; conditions: Table 3, Strain ID I: S. pneumoniae Stpn_Erm S 4297
Procedure, shortened: as §1

[7] = tested on: S. pneumoniae Stpn_Mef 5654; type: cell-based, Streptococcus pneumoniae; conditions: Table 3, Strain ID J: S. pneumoniae Stpn_Mef 5654; unit assumed
Procedure, shortened: as §1

[8] = tested on: S. pneumoniae Stpn_Mef S 3427; type: cell-based, Streptococcus pneumoniae; conditions: Table 3, Strain ID K: S. pneumoniae Stpn_Mef S 3427
Procedure, shortened: as §1

H. influenzae Hain_49247 = type: cell-based, Haemophilus influenzae; conditions: Table 3, Strain ID L: H. influenzae Hain_49247; unit assumed
Procedure, shortened: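 Visible-growth inhibition defined the MIC, obtained by NCCLS broth microdilution at 35° C. over 18-24 hours with a final inoculum of 3×10^5–7×10^5 CFU/mL.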

CC[C@H]1OC(=O)[C@H](C)C(=O)[C@H](C)[C@@H](O[C@@H]2O[C@H](C)C[C@H](N(C)C)[C@H]2O)[C@@](C)(OC)C[C@@H](C)C(=O)[C@H](C)[C@@H]2[C@@H]1OC(=O)N2CCCCn1cnc(-c2ccccc2)c1 [Compound 4710]
MIC (E. coli Esco_25922): 50 µg/mL (≈ 62.7 µM)
MIC (E. faecalis Enfa_29212): ≦0.05
MIC [1]: 0.1 µg/mL (≈ 0.125 µM)
MIC [2]: 0.2 µg/mL (≈ 0.251 µM)
MIC (S. pyogenes Stpy_8668): ≦0.5
MIC [3]: ≦0.5
MIC [4]: ≦0.5
MIC (S. pneumoniae Stpn_49619): ≦0.5
MIC [5]: 0.2 µg/mL (≈ 0.251 µM)
MIC [6]: ≦0.05
MIC [7]: 0.2 µg/mL (≈ 0.251 µM)
MIC [8]: ≦0.5
MIC (H. influenzae Hain_49247): 3.13 µg/mL (≈ 3.93 µM)

CC[C@H]1OC(=O)[C@H](C)C(=O)[C@H](C)[C@@H](O[C@@H]2O[C@H](C)C[C@H](N(C)C)[C@H]2O)[C@@](C)(OC)C[C@@H](C)C(=O)[C@H](C)[C@@H]2[C@@H]1OC(=O)N2CCCCc1ccnc2ccccc12 [Compound 4711]
MIC (E. coli Esco_25922): 50 µg/mL (≈ 63.9 µM)
MIC (E. faecalis Enfa_29212): ≦0.05
MIC [1]: 0.1 µg/mL (≈ 0.128 µM)
MIC [2]: 0.1 µg/mL (≈ 0.128 µM)
MIC (S. pyogenes Stpy_8668): ≦0.5
MIC [3]: ≦0.5
MIC [4]: ≦0.5
MIC (S. pneumoniae Stpn_49619): ≦0.5
MIC [5]: 6.25 µg/mL (≈ 7.99 µM)
MIC ([6]; unit assumed): 0.2 µg/mL (≈ 0.256 µM)
MIC [7]: 0.1 µg/mL (≈ 0.128 µM)
MIC [8]: ≦0.5
MIC (H. influenzae Hain_49247): 1.56 µg/mL (≈ 1.99 µM)

CC[C@H]1OC(=O)[C@H](C)C(=O)[C@H](C)[C@@H](O[C@@H]2O[C@H](C)C[C@H](N(C)C)[C@H]2O)[C@@](C)(OC)C[C@@H](C)C(=O)[C@H](C)[C@@H]2[C@@H]1OC(=O)N2CCCCn1cnc2ncccc21 [Compound 4713]
MIC (E. coli Esco_25922): 50 µg/mL (≈ 64.8 µM)
MIC (E. faecalis Enfa_29212; unit assumed): 0.1 µg/mL (≈ 0.13 µM)
MIC [1]: 0.4 µg/mL (≈ 0.518 µM)
MIC [2]: 0.4 µg/mL (≈ 0.518 µM)
MIC (S. pyogenes Stpy_8668): ≦0.5
MIC [3]: ≦0.5
MIC [4]: ≦0.5
MIC (S. pneumoniae Stpn_49619): ≦0.5
MIC [5]: 0.78 µg/mL (≈ 1.01 µM)
MIC ([6]; unit assumed): 0.1 µg/mL (≈ 0.13 µM)
MIC [7]: 3.13 µg/mL (≈ 4.05 µM)
MIC ([8]; unit assumed): 0.4 µg/mL (≈ 0.518 µM)
MIC (H. influenzae Hain_49247): 3.13 µg/mL (≈ 4.05 µM)

CC[C@H]1OC(=O)[C@H](C)C(=O)[C@H](C)[C@@H](O[C@@H]2O[C@H](C)C[C@H](N(C)C)[C@H]2O)[C@@](C)(OC)C[C@@H](C)C(=O)[C@H](C)[C@@H]2[C@@H]1OC(=O)N2CCCn1cnc(-c2ccccc2)c1 [Compound 4714]
MIC (E. coli Esco_25922): > 50 µg/mL
MIC (E. faecalis Enfa_29212; unit assumed): 0.4 µg/mL (≈ 0.511 µM)
MIC [1]: 6.25 µg/mL (≈ 7.98 µM)
MIC [2]: 6.25 µg/mL (≈ 7.98 µM)
MIC (S. pyogenes Stpy_8668; unit assumed): 0.1 µg/mL (≈ 0.128 µM)
MIC [3]: ≦0.5
MIC [4]: ≦0.5
MIC (S. pneumoniae Stpn_49619): ≦0.5
MIC [5]: > 50 µg/mL
MIC ([6]; unit assumed): 6.25 µg/mL (≈ 7.98 µM)
MIC [7]: 0.4 µg/mL (≈ 0.511 µM)
MIC ([8]; unit assumed): 0.1 µg/mL (≈ 0.128 µM)
MIC (H. influenzae Hain_49247): > 50 µg/mL

CC[C@H]1OC(=O)[C@H](C)C(=O)[C@H](C)[C@@H](O[C@@H]2O[C@H](C)C[C@H](N(C)C)[C@H]2O)[C@@](C)(OC)C[C@@H](C)C(=O)[C@H](C)[C@@H]2[C@@H]1OC(=O)N2CCCn1cnc2cccnc21 [Compound 4716]
MIC (E. coli Esco_25922): > 50 µg/mL
MIC (E. faecalis Enfa_29212; unit assumed): 0.78 µg/mL (≈ 1.03 µM)
MIC [1]: 6.25 µg/mL (≈ 8.25 µM)
MIC [2]: 12.5 µg/mL (≈ 16.5 µM)
MIC (S. pyogenes Stpy_8668; unit assumed): 0.1 µg/mL (≈ 0.132 µM)
MIC [3]: ≦0.5
MIC [4]: ≦0.5
MIC (S. pneumoniae Stpn_49619): ≦0.5
MIC [5]: > 50 µg/mL
MIC ([6]; unit assumed): 25 µg/mL (≈ 33 µM)
MIC [7]: 0.78 µg/mL (≈ 1.03 µM)
MIC ([8]; unit assumed): 0.4 µg/mL (≈ 0.528 µM)
MIC (H. influenzae Hain_49247): 25 µg/mL (≈ 33 µM)

CC[C@H]1OC(=O)[C@H](C)C(=O)[C@H](C)[C@@H](O[C@@H]2O[C@H](C)C[C@H](N(C)C)[C@H]2O)[C@@](C)(OC)C[C@@H](C)C(=O)[C@H](C)[C@@H]2[C@@H]1OC(=O)N2CCCCn1ccc2ccccc21 [Compound 4717]
MIC (E. coli Esco_25922): > 50 µg/mL
MIC (E. faecalis Enfa_29212; unit assumed): 0.1 µg/mL (≈ 0.13 µM)
MIC [1]: 0.2 µg/mL (≈ 0.26 µM)
MIC [2]: 0.4 µg/mL (≈ 0.519 µM)
MIC (S. pyogenes Stpy_8668): ≦0.5
MIC [3]: ≦0.5
MIC [4]: ≦0.5
MIC (S. pneumoniae Stpn_49619): ≦0.5
MIC [5]: 6.25 µg/mL (≈ 8.12 µM)
MIC ([6]; unit assumed): 0.4 µg/mL (≈ 0.519 µM)
MIC [7]: 0.2 µg/mL (≈ 0.26 µM)
MIC [8]: ≦0.05
MIC (H. influenzae Hain_49247): 6.25 µg/mL (≈ 8.12 µM)
